Assay: Stability study for amorphous trisodium sacubitril valsartan complex (HPLC purity and PXRD on storage)
Format: physicochemical
Excerpt: In another embodiment, the present invention provides a method of packing amorphous form of sacubitril valsartan trisodium complex, comprising: placing amorphous form of sacubitril valsartan trisodium complex in LDPE bag under nitrogen atmosphere; placing the product containing Low-density polyethylene (LDPE) bag in a second LDPE bag under nitrogen atmosphere; keeping the silica gel packet between two LDPE bags and sealing; placing the second sealed bag in a triple laminated bag and sealing.
The X-Ray powder diffraction can be measured using PANalytical X'per^3pro X-ray powder Diffractometer equipped with a Cu-anode ([λ]=1.54 Angstrom), X-ray source operated at 45 kV, 40 mA. Two-theta calibration is performed using an NIST SRM 640c Si standard. The sample was analyzed using the following instrument parameters: measuring range=3-45° 20; step size=0.01°; and Time per step=23 sec.
In another embodiment, the present invention provides Sacubitril sodium and amorphous form of sacubitril-valsartan trisodium complex obtained by the above process, as analyzed using high performance liquid chromatography (“HPLC”) with the conditions are tabulated below:
The amorphous form of trisodium sacubitril valsartan complex is packed in LDPE bag under nitrogen atmosphere and placed in another LDPE bag, filled with nitrogen and kept silica gel packet between the bags, tied with strip seal. Kept the bag in triple laminated sunlight barrier bag and sealed with heat sealer. The stability of the samples was tested at 25±2° C./60±5% RH and 40±2° C./75±5% RH respectively.

[1] = 25 ± 2° C./60 ± 5% RH, 1st month
[2] = 25 ± 2° C./60 ± 5% RH, 3rd month
[3] = 25 ± 2° C./60 ± 5% RH, 6th month
[4] = 40 ± 2° C./75 ± 5% RH, 1st month
[5] = 40 ± 2° C./75 ± 5% RH, 3rd month
[6] = 40 ± 2° C./75 ± 5% RH, 6th month

- HPLC purity (%) [1]: 99.95%
- PXRD [1]: Amorphous
- HPLC purity (%) [2]: 99.94%
- PXRD [2]: Amorphous
- HPLC purity (%) [3]: 99.93%
- PXRD [3]: Amorphous
- HPLC purity (%) (25 ± 2° C./60 ± 5% RH, Initial): 99.94%
- PXRD (25 ± 2° C./60 ± 5% RH, Initial): Amorphous
- HPLC purity (%) [4]: 99.95%
- PXRD [4]: Amorphous
- HPLC purity (%) [5]: 99.93%
- PXRD [5]: Amorphous
- HPLC purity (%) [6]: 99.90%
- PXRD [6]: Amorphous
- HPLC purity (%) (40 ± 2° C./75 ± 5% RH, Initial): 99.94%
- PXRD (40 ± 2° C./75 ± 5% RH, Initial): Amorphous
- solid form on storage (packed in LDPE/triple laminated bags, up to 6 months at real and accelerated conditions, up to about 40° C., about 25% to about 75% RH): the amorphous character was retained
- stability at real time and accelerated conditions (stored at 25±2° C./60±5% RH for 6 months and at 40±2° C./75±5% RH for 6 months): stable
Substance: sacubitril valsartan trisodium complex

From patent publication US11318116B2, “Stable amorphous form of sacubitril valsartan trisodium complex and processes for preparation thereof” (Laurus Labs Limited, priority 2016, dated 2022)
